This note sets out measurements from patent US20060045953A1 (priority 2004, published 2006).

One assay addresses T1, hT1R2/hT1R3 sweet receptor (Homo sapiens, UniProt Q7RTX0+Q8TE23).
T1 construct: expressed in transfected cells; host or cells: HEK293 derivative stably expressing Gα15, clone S-9
T1 sequence (Q8TE23 20-839): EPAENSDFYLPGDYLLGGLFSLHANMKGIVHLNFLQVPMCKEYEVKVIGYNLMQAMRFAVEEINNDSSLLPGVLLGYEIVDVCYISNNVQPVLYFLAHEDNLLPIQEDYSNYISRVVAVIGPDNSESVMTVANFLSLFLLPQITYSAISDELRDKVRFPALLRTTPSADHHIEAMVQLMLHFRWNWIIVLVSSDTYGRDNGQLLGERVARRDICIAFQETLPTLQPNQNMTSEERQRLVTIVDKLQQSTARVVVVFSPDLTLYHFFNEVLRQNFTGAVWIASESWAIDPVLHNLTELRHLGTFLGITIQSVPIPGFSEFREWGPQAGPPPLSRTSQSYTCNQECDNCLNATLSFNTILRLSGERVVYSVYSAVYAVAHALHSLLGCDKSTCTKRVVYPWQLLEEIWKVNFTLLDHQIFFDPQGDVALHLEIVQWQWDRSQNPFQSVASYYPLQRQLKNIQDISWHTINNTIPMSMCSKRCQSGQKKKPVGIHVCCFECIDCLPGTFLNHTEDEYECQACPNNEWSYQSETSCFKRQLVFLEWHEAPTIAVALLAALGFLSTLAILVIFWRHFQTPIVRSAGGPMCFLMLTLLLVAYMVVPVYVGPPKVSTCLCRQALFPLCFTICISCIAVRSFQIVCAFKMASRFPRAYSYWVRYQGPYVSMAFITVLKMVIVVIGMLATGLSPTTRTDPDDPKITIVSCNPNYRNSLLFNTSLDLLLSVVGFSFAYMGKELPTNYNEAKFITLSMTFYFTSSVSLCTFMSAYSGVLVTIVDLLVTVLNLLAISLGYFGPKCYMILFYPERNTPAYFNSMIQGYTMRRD
T1 sequence (Q7RTX0 21-852): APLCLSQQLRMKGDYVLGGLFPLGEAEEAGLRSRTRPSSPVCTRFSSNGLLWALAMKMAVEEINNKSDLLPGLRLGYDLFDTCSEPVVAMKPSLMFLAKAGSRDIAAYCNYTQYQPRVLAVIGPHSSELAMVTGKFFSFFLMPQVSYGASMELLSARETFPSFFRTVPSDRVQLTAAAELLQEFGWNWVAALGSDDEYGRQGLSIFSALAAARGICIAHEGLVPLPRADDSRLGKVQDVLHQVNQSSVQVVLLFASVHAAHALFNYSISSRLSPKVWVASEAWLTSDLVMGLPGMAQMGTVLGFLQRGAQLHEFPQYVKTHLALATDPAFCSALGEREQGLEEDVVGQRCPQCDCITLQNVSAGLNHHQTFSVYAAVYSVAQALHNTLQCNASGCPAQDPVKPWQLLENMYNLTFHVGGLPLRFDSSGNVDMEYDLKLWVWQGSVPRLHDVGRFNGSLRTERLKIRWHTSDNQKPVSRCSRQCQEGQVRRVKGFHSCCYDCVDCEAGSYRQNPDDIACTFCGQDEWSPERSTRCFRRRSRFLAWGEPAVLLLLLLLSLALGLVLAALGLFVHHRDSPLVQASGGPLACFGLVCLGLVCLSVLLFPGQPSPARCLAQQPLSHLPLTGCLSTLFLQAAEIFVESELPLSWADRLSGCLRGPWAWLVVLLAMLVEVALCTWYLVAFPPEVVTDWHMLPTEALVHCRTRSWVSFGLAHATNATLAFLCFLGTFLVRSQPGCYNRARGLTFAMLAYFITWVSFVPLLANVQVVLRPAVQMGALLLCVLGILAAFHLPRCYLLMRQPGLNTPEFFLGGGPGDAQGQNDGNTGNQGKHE
The assay can be described thus: In vitro hT1R2/hT1R3 sweet taste receptor activation assay (FLIPR, dose response). Format: cell-based. Conditions: Table E, Sweet Enhancer Amides; read-out: Sweet EC50. As to the method:
Activity was determined using an automated fluorometric imaging assay on a FLIPR instrument (Fluorometric Intensity Plate Reader, Molecular Devices, Sunnyvale, Calif.) (designated FLIPR assay). […] S-9 cells were grown for 24 hours at 37° C. S-9 cells were then loaded with the calcium dye Fluo-3AM (Molecular Probes, Eugene, Oreg.), 4 µM in a phosphate buffered saline (D-PBS) (Invitrogen, Carlsbad, Calif.), for 1 hour at room temperature. After replacement with 25 µl D-PBS, stimulation was performed in the FLIPR instrument and at room temperature by the addition of 25 µl D-PBS supplemented with different stimuli at concentrations corresponding to twice the desired final level.
For dose-responses analysis, stimuli were presented in duplicates at 10 different concentrations ranging from 60 nM to 30 µM. Activities were normalized to the response obtained with 400 mM D-fructose, a concentration that elicits maximum receptor response. EC50s were determined using a non-linear regression algorithm (using a Senomyx, Inc. software), where the Hill slope, bottom asymptotes and top asymptotes were allow to vary.
Consider `O=C(NC1CCc2ccccc21)c1cccc(Cl)c1O` (stereo not shown) [Example E51, 3-chloro-N-(2,3-dihydro-1H-inden-1-yl)-2-hydroxybenzamide], for which the EC50 was 1.49 µM. On the same count and under the same terms, under `CC1CCCCC1NC(=O)c1ccc(F)c(Cl)c1` (stereo not shown) [Example E53, 3-chloro-4-fluoro-N-(2-methylcyclohexyl)benzamide] stands 1.7 µM; under `CC1CCC(NC(=O)c2ccc(F)c(C(F)(F)F)c2)CC1` (stereo not shown) [Example E60, 4-fluoro-N-(4-methylcyclohexyl)-3-(trifluoromethyl)benzamide], 2.37 µM. Still for that read-out and setting: under `CC1CCCCC1NC(=O)c1ccc(F)c(C(F)(F)F)c1` (stereo not shown) [Example E32, 4-fluoro-N-(2-methylcyclohexyl)-3-(trifluoromethyl)benzamide] stands 0.51 µM; under `COc1cc(Cl)c(NC(=O)c2cccc(C(F)(F)F)c2)c(OC)c1` [Example E85, N-(2-Chloro-4,6-dimethoxy-phenyl)-3-trifluoromethyl-benzamide], 1.42 µM. Same read-out and setting: under `O=C(NC1CCCc2ccccc21)c1cccc(Cl)c1O` (stereo not shown) [Example E7, 3-chloro-2-hydroxy-N-(1,2,3,4-tetrahydronaphthalen-1-yl)benzamide] stands 1.81 µM; under `O=C(Nc1ccc(F)cc1F)N1Cc2ccccc2C1` [Example E101, N-(2,4-difluorophenyl)isoindoline-2-carboxamide], 1.37 µM. Regarding `Cc1ccc(NC(=O)N2CCc3ccccc3C2)cc1` [Example E111, N-p-tolyl-3,4-dihydroisoquinoline-2(1H)-carboxamide], the EC50 was found to be 4.27 µM. The same measure, in the same setting: under `Cc1cc(C)c(C(=O)NC2CCCCC2)c(C)c1` [Example E66, N-cyclohexyl-2,4,6-trimethylbenzamide] stands 2.86 µM; under `Cc1cccc(C)c1C(=O)N[C@H]1CCCc2ccccc21` [Example E14, (S)-2,6-dimethyl-N-(1,2,3,4-tetrahydronaphthalen-1-yl)benzamide], 2.91 µM.

As for `COc1c(Cl)ccc(Cl)c1C(=O)NC1CCCC(C)C1C` (stereo not shown) [Example E48, 3,6-dichloro-N-(2,3-dimethylcyclohexyl)-2-methoxybenzamide], the EC50 was found to be 1.29 µM.

For `CC1CCCC(NC(=O)c2cccc(Cl)c2Cl)C1C` (stereo not shown) [Example E76, 2,3-dichloro-N-(2,3-dimethylcyclohexyl)benzamide], the EC50 turned out to be 3.99 µM. On the same count and under the same terms, under `O=C(Nc1ccc(Cl)cc1Cl)N1Cc2ccccc2C1` [Example E107, N-(2,4-dichlorophenyl)isoindoline-2-carboxamide] stands 4.15 µM. Regarding `O=C(NC1CCCc2c(O)cccc21)c1cccc(Cl)c1O` (stereo not shown) [Example E3, 3-chloro-2-hydroxy-N-(5-hydroxy-1,2,3,4-tetrahydronaphthalen-1-yl)benzamide], the EC50 came to 1.03 µM. Still for that read-out and setting: the value for `Cc1c(F)c(F)c(C(=O)N[C@H](C)C(C)(C)C)c(F)c1F` [Example E31, (R)-N-(3,3-dimethylbutan-2-yl)-2,3,5,6-tetrafluoro-4-methylbenzamide] was 0.49 µM; that for `CC1CCCCC1NC(=O)c1ccc(F)c(F)c1` (stereo not shown) [Example E81] was 4.37 µM; that for `O=C(Nc1ccc(Cl)cc1Cl)N1CCc2ccccc2C1` [Example E109, N-(2,4-dichlorophenyl)-3,4-dihydroisogumoline-2(1H)-carboxamide] was 2.34 µM.

Regarding `CCOc1ccc(CCNC(=O)c2ccnn2C)cc1` [Example E83, N-(4-ethoxyphenethyl)-1-methyl-i H-pyrazole-5-carboxamide], the EC50 worked out at 4.68 µM.

As for `CC1CCc2ccccc2C1NC(=O)c1ccccc1O` (stereo not shown) [Example E9, 2-hydroxy-N-(2-methyl-1,2,3,4-tetrahydronaphthalen-1-yl)benzamide], the EC50 was 2.36 µM. Turning to `CCC(CC)NC(=O)c1cccc(Cl)c1Cl` [Example E75, 2,3-dichloro-N-(pentan-3-yl)benzamide], the EC50 came to 3.78 µM. Same read-out and setting: the value for `COc1ccc(Cl)c(OC)c1C(=O)N[C@H]1CCCc2ccccc21` [Example E20, (S)-3-chloro-2,6-dimethoxy-N-(1,2,3,4-tetrahydronaphthalen-1-yl)benzamide] was 4.13 µM; that for `C=CCc1c(F)c(F)c(C(=O)NC2CCCCC2)c(F)c1F` [Example E132, 4-allyl-N-cyclohexyl-2,3,5,6-tetrafluorobenzamide] was 0.55 µM; that for `N#Cc1ccc(NC(=O)c2c(Cl)cccc2Cl)cc1` [Example E91, 2,6-Dichloro-N-(4-cyano-phenyl)-benzamide] was 2.74 µM.

As to `O=C(Nc1ccc(Cl)cc1)N1Cc2ccccc2C1` [Example E105, N-(4-chlorophenyl)isoindoline-2-carboxamide], the EC50 came to 3.4 µM. Same read-out and setting: the value for `O=C(N[C@@H]1CCCc2ccccc21)c1cncc(Br)c1` [Example E21, (R)-5-bromo-N-(1,2,3,4-tetrahydronaphthalen-1-yl)nicotinamide] was 4.19 µM. Same read-out and setting: under `Cc1nocc1C(=O)NC1c2ccccc2CCC1C` (stereo not shown) [Example E6, 3-methyl-N-(2-methyl-1,2,3,4-tetrahydronaphthalen-1-yl)isoxazole-4-carboxamide] stands 1.48 µM; under `Cc1cccc2c1CCC[C@H]2NC(=O)c1cccc(Cl)c1O` [Example E126, (R)-3-chloro-2-hydroxy-N-(5-methyl-1,2,3,4-tetrahydronaphthalen-1-yl)benzamide], 0.89 µM. On the same count and under the same terms, under `Cc1cccc(C(=O)NC2CCCCC2C)c1Cl` (stereo not shown) [Example E57, 2-chloro-3-methyl-N-(2-methylcyclohexyl)benzamide] stands 1.95 µM; under `CC1CCc2ccccc2C1NC(=O)c1cccc(O)c1O` (stereo not shown) [Example E8, 2,3-dihydroxy-N-(2-methyl-1,2,3,4-tetrahydronaphthalen-1-yl)benzamide], 1.98 µM.

The same assay, now with this note: read-out: EC50 for activation of a hT1R2/hT1R3 sweet receptor expressed in an HEK293 cell line.
For `CCCc1nocc1C(=O)N[C@@H]1CCCc2c(OC)cccc21` [Example 188, (R)-3-Propyl-N-(5-methoxy-1,2,3,4-tetrahydronaphthalen-1-yl)isoxazole-4-carboxamide], the EC50 worked out at 0.24 µM. For the compound `Cc1c(F)c(F)c(C(=O)N[C@@H](C)C(C)C)c(F)c1F` [Example 163, (S)-2,3,5,6-tetrafluoro-4-methyl-N-(3-methylbutan-2-yl)benzamide], the EC50 was 0.6 µM.

Turning to `Cc1cc(-c2ccco2)cc(C)c1C(=O)NC1CCCCC1C` (stereo not shown) [Example 202, 4-(furan-2-yl)-2,6-dimethyl-N-(2-methylcyclohexyl)benzamide], the EC50 worked out at 1.02 µM.

Consider `Cc1cccc2c1CN(C(=O)Nc1ccc3c(c1)OCO3)C2` [Example 199, N-(3,4-(methylenedioxy)phenyl)-4-methylisoindoline-2-carboxamide], for which the EC50 was found to be 0.95 µM. Still for that read-out and setting: under `Cc1cc(F)c(NC(=O)N2Cc3cccc(C)c3C2)c(F)c1` [Example 194, N-(2,6-difluoro-4-methylphenyl)-4-methylisoindoline-2-carboxamide] stands 0.06 µM.
